# Counter-ions that a name gives are not always drawn.
# Tested on: A549 cells
# Experiment: Cell viability of dox-treated A549 cultures with oligonucleotide-modified nanoparticles
# Type: cell-based, human
# Settings: dox alone at 25 μm dox concentration
# Procedure: As proof of the oligonucleotide-modified gold nanoparticle for drug control concept, the anticancer drug doxorubicin hydrochloride (dox) in a lung cancer cell model (A549) was investigated. […] However, when an oligonucleotide functionalized nanoparticle agent containing a non-specific sequence is added to the culture at the same point as the drug molecule, a dose-dependant recovery of cell viability is observed (cells recover to approximately 80% viable at 3 nM concentration of nanoparticles). The dox-treated cells were then examined in the presence of an anti-survivin oligonucleotide modified gold nanoparticle conjugate. […] In these studies, the anti-survivin containing nanoparticle agent added to the culture at the same point as the drug molecule reduce cell viability to 45% at low concentrations and recover cell viability to 75% at high concentrations (FIG. 3).
structure (smiles),measurement,value
"COc1cccc2c1C(=O)c1c(O)c3c(c(O)c1C2=O)C[C@@](O)(C(=O)CO)C[C@@H]3O[C@H]1C[C@H](N)[C@H](O)[C@H](C)O1 [dox, doxorubicin hydrochloride]",cell viability,approximately 60%
